Here are results for 66 compounds from patent publication US7179806B2, “Δ1-pyrrolines used as pesticides” (Bayer Cropscience AG, priority 2000, dated 2007).

Broadly, the chromatographic logP is a lipophilicity value derived from retention on a column. Low readings indicate a more hydrophilic compound, high ones a more lipophilic compound.

This data set is described as follows: log P determination by HPLC (reversed-phase C18, EEC Directive 79/831 Annex V.A8). It counts as physicochemical. To be noted: 43° C. The text has this: Mobile phases for determination in the acidic range: 0.1% aqueous phosphoric acid, acetonitrile; linear gradient from 10% acetonitrile to 90% acetonitrile.
Setting [1] is: reversed-phase C18 HPLC column, pH 2.3, pH 2.3, 0.1% aqueous phosphoric acid/acetonitrile gradient.

As for `N#CCCN1CCN(c2ncc(-c3ccc(C4CCC(c5c(F)cccc5F)=N4)cc3)cn2)CC1` (stereo not drawn) [Example 131], the chromatographic logP under setting [1] stood at 1.69. Consider `CC(C)(C)C(=O)N(c1ccc(-c2ccc(C3CCC(c4c(F)cccc4F)=N3)cc2)nn1)C1CC1` (stereo not drawn) [Example 66], for which, under setting [1], the chromatographic logP came to 2.53. Consider `O=C1CCN(c2ncc(-c3ccc(C4CCC(c5c(F)cccc5F)=N4)cc3)cn2)CC1` (stereo not drawn) [Example 214], for which, under setting [1], the chromatographic logP is 2. Turning to `Fc1cccc(F)c1C1=NC(c2ccc(-c3cnc(N4CCN(Cc5ccc(C(F)(F)F)cc5)CC4)nc3)cc2)CC1` (stereo not drawn) [Example 144], the chromatographic logP under setting [1] turned out to be 4.7. Under setting [1], `Fc1cccc(F)c1C1=NC(c2ccc(-c3ncc(Cl)cn3)cc2)CC1` (stereo not drawn) [Example 218] came in with a chromatographic logP of 2.87. Under setting [1], `CC(=O)N(C)c1ccc(-c2ccc(C3CCC(c4c(F)cccc4F)=N3)cc2)nn1` (stereo not drawn) [Example 67] came in with a chromatographic logP of 1.48. For `COC(=O)C1CCN(c2ccc(-c3ccc(C4CCC(c5c(F)cccc5F)=N4)cc3)cn2)CC1` (stereo not drawn) [Example 170], the chromatographic logP under setting [1] is 1.61. `COCCCN1CCN(c2ccc(-c3ccc(C4CCC(c5c(F)cccc5F)=N4)cc3)cn2)CC1` (stereo not drawn) [Example 195] had a chromatographic logP under setting [1] of 1.16. The compound `COCCN(Cc1ccc(-c2ccc(C3CCC(c4c(F)cccc4F)=N3)cc2)nc1)S(=O)(=O)C(F)(F)F` (stereo not drawn) [Example 16] returned a chromatographic logP under setting [1] of 3.21. `Fc1cccc(F)c1C1=NC(c2ccc(-c3cncnc3)cc2)CC1` (stereo not drawn) [Example 28] returned a chromatographic logP under setting [1] of 1.49. As for `CN(c1ccc(-c2ccc(C3CCC(c4c(F)cccc4F)=N3)cc2)nn1)S(=O)(=O)C(F)(F)F` (stereo not drawn) [Example 53], the chromatographic logP under setting [1] amounted to 1.66. For the compound `Fc1cccc(F)c1C1=NC(c2ccc(-c3cnc(N4CCN(Cc5ccc(Cl)cc5)CC4)nc3)cc2)CC1` (stereo not drawn) [Example 143], the chromatographic logP under setting [1] was 2.25. Compound `CN(Cc1ccc(Cl)nc1)c1ncc(-c2ccc(C3CCC(c4c(F)cccc4F)=N3)cc2)cn1` (stereo not drawn) [Example 208] registered a chromatographic logP under setting [1] of 2.89. Turning to `CC(C)(C)OC(=O)N1CCN(c2ccc(-c3ccc(C4CCC(c5c(F)cccc5F)=N4)cc3)nn2)CC1` (stereo not drawn) [Example 51], the chromatographic logP (pH 2.3, 0.1% aqueous phosphoric acid/acetonitrile gradient) was determined as 2.07. Compound `O=S(=O)(N(Cc1ccc(-c2ccc(C3CCC(c4c(F)cccc4F)=N3)cc2)nc1)C1CC1)C(F)(F)F` (stereo not drawn) [Example 15] had a chromatographic logP under setting [1] of 3.39. With `Fc1cccc(F)c1C1=NC(c2ccc(-c3ccc(-n4ccnc4)nc3)cc2)CC1` (stereo not drawn) [Example 114], the chromatographic logP under setting [1] stood at 1.28. `O=S(=O)(N(c1ncc(-c2ccc(C3CCC(c4c(F)cccc4F)=N3)cc2)cn1)C1CC1)C(F)(F)F` (stereo not drawn) [Example 38] returned a chromatographic logP under setting [1] of 3.63.

With `Fc1cccc(F)c1C1=NC(c2ccc(-c3cccnc3)cc2)CC1` (stereo not drawn) [Example 18], the chromatographic logP under setting [1] came to 1.12. `Fc1cccc(F)c1C1=N[C@@H](c2ccc(-c3ccc(N4CCOCC4)nc3)cc2)CC1` [Example 164] registered a chromatographic logP under setting [1] of 1.27. This chromatographic logP and that of the compound before are within 0.2 log units of each other. On the same count and under the same terms, as for `CCCCCN1CCN(c2ncc(-c3ccc(C4CCC(c5c(F)cccc5F)=N4)cc3)cn2)CC1` (stereo not drawn) [Example 155], the figure is 2.02. On the same count and under the same terms, to `CC(C)OC(=O)c1ccc(-c2ccc(C3CCC(c4c(F)cccc4F)=N3)cc2)nc1` (stereo not drawn) [Example 8] belongs 3.89; to `Fc1cccc(F)c1C1=NC(c2ccc(-c3cnc(Cc4ccccc4)nc3)cc2)CC1` (stereo not drawn) [Example 91], 2.79; to `Cc1ccc(CN(C)c2ncc(-c3ccc(C4CCC(c5c(F)cccc5F)=N4)cc3)cn2)o1` (stereo not drawn) [Example 186], 3.4. Still for that read-out and setting: to `FC(F)(F)COc1ccc(Cl)nn1` [III-19, 3-chloro-6-(2,2,2-trifluoroethoxy)pyridazine] belongs 2.05. As to `CCCCCCN(C)c1ncc(-c2ccc(C3CCC(c4c(F)cccc4F)=N3)cc2)cn1` (stereo not drawn) [Example 99], the chromatographic logP under setting [1] was 4.94. For `Cc1cccc(N2CCN(c3ncc(-c4ccc(C5CCC(c6c(F)cccc6F)=N5)cc4)cn3)CC2)c1C` (stereo not drawn) [Example 134], under setting [1], the chromatographic logP stood at 5.78. The same measure, in the same setting: as for `Fc1cccc(F)c1C1=NC(c2ccc(-c3ccc(N4CCN(Cc5ccc(Cl)cc5)CC4)nc3)cc2)CC1` (stereo not drawn) [Example 173], the figure is 1.83; as for `CN(c1ncc(-c2ccc(C3CCC(c4c(F)cccc4F)=N3)cc2)cn1)C1CCCCC1` (stereo not drawn) [Example 212], 4.11. On the same count and under the same terms, as for `CCCCCNc1ncc(-c2ccc(C3CCC(c4c(F)cccc4F)=N3)cc2)cn1` (stereo not drawn) [Example 154], the figure is 2.9; as for `CCCN(CC)c1ncc(Br)cn1` [III-3, N-(5-bromo-2-pyrimidinyl)-N-ethyl-N-propylamine], 4.38; as for `Cc1ccc(-c2ccc(C3CCC(c4c(F)cccc4F)=N3)cc2)nc1` (stereo not drawn) [Example 202], 1.24.

Turning to `N#CCc1ccc(-c2ccc(C3CCC(c4c(F)cccc4F)=N3)cc2)nc1` (stereo not drawn) [Example 6], the chromatographic logP under setting [1] was 1.74.

Consider `Fc1cccc(F)c1C1=NC(c2ccc(-c3ccc(N4CCN(CC5CCCCC5)CC4)nc3)cc2)CC1` (stereo not drawn) [Example 128], for which, under setting [1], the chromatographic logP was 6.7. For `Fc1cccc(F)c1C1=NC(c2ccc(-c3cnc(N4CCC5(CC4)OCCO5)nc3)cc2)CC1` (stereo not drawn) [Example 187], the chromatographic logP under setting [1] was 2.51. Regarding `CCOCCN1CCN(c2ncc(-c3ccc(C4CCC(c5c(F)cccc5F)=N4)cc3)cn2)CC1` (stereo not drawn) [Example 125], the chromatographic logP under setting [1] amounted to 1.47.

Consider `Fc1cccc(F)c1C1=NC(c2ccc(-c3cnc(N4CCCCC4)nc3)cc2)CC1` (stereo not drawn) [Example 35], for which, under setting [1], the chromatographic logP was 3.4. `O=C1CCCCCN1c1ccc(-c2ccc(C3CCC(c4c(F)cccc4F)=N3)cc2)cn1` (stereo not drawn) [Example 106] yielded a chromatographic logP under setting [1] of 2.25.

On to `C[C@@H]1CN(c2ncc(-c3ccc(C4CCC(c5c(F)cccc5F)=N4)cc3)cn2)C[C@H](C)O1` (stereo partly drawn) [Example 137], for which the chromatographic logP under setting [1] was determined as 3.03. Still for that read-out and setting: as for `Fc1cccc(F)c1C1=NC(c2ccc(-c3cnc(N4CCC(C(F)(F)F)CC4)nc3)cc2)CC1` (stereo not drawn) [Example 122], the figure is 3.84. Under setting [1], `Fc1cccc(F)c1C1=NC(c2ccc(-c3ccc(Br)nc3)cc2)CC1` (stereo not drawn) [Example 179] came in with a chromatographic logP of 2.69.

As to `CCCC(C)N1CCN(c2ncc(-c3ccc(C4CCC(c5c(F)cccc5F)=N4)cc3)cn2)CC1` (stereo not drawn) [Example 112], the chromatographic logP under setting [1] came out at 1.65.

As for `CN(c1ccc(Cl)nn1)S(=O)(=O)C(F)(F)F` [III-23, N-(6-chloro-3-pyridazinyl)(trifluoro)-N-methyl-methanesulphonamide], the chromatographic logP under setting [1] was found to be 2.18. Under setting [1], `CC(C)Sc1ccc(Cl)nn1` [III-20, 6-chloro-3-pyridazinyl isopropyl sulphide] had a chromatographic logP of 2.34.

Consider `CCCOc1ncc(-c2ccc(C3CCC(c4c(F)cccc4F)=N3)cc2)cn1` (stereo not drawn) [Example 100], for which, under setting [1], the chromatographic logP is 2.72. The compound `CC(C)ON=C1CCN(c2ncc(-c3ccc(C4CCC(c5c(F)cccc5F)=N4)cc3)cn2)CC1` (stereo not drawn) [Example 217] showed a chromatographic logP under setting [1] of 3.83.

For the compound `N#Cc1cccnc1N1CCN(c2ncc(-c3ccc(C4CCC(c5c(F)cccc5F)=N4)cc3)cn2)CC1` (stereo not drawn) [Example 150], the chromatographic logP under setting [1] is 3.28.

Under setting [1], `Fc1cccc(F)c1C1=NC(c2ccc(-c3ccc(N4CCOCC4)nc3)cc2)CC1` (stereo not drawn) [Example 21] showed a chromatographic logP of 1.44. On to `Fc1cccc(F)c1C1=NC(c2ccc(-c3ccc(N4CCCCC4)nc3)cc2)CC1` (stereo not drawn) [Example 111], for which the chromatographic logP under setting [1] was 1.49. The chromatographic logP values of the last two compounds are within 0.2 log units of each other. Under setting [1], `Fc1cccc(F)c1C1=NC(c2ccc(-c3ccc(N4CCCC4)nc3)cc2)CC1` (stereo not drawn) [Example 24] showed a chromatographic logP of 1.45. The chromatographic logP values of the last two compounds are within 0.2 log units of each other. Under setting [1], `Fc1cccc(F)c1C1=NC(c2ccc(-c3ccc(N4CCN(c5cccc(Cl)c5)CC4)nc3)cc2)CC1` (stereo not drawn) [Example 165] gave a chromatographic logP of 3.17. Regarding `Fc1cccc(F)c1C1=NC(c2ccc(-c3cnc(OCC(F)(F)F)nc3)cc2)CC1` (stereo not drawn) [Example 3, 5-{4-[5-(2,6-difluorophenyl)-3,4-dihydro-2H-pyrrol-2-yl]phenyl}-2-(2,2,2-trifluorethoxy)pyrimidine], under setting [1], the chromatographic logP turned out to be 2.88. On to `CCCCN(CCCC)c1ccc(-c2ccc(C3CCC(c4c(F)cccc4F)=N3)cc2)nn1` (stereo not drawn) [Example 55], for which the chromatographic logP under setting [1] worked out at 2.56. Consider `Fc1cccc(F)c1C1=NC(c2ccc(-c3ccc(Cl)nc3)cc2)CC1` (stereo not drawn) [Example 19], for which, under setting [1], the chromatographic logP was 2.58. For the compound `Fc1cccc(F)c1C1=NC(c2ccc(-c3ncccn3)cc2)CC1` (stereo not drawn) [Example 26], the chromatographic logP under setting [1] worked out at 1.79. Same read-out and setting: as for `CCCCCCNc1ncc(-c2ccc(C3CCC(c4c(F)cccc4F)=N3)cc2)cn1` (stereo not drawn) [Example 153], the figure is 3.1; as for `Fc1ccccc1N1CCN(c2ccc(-c3ccc(C4CCC(c5c(F)cccc5F)=N4)cc3)cn2)CC1` (stereo not drawn) [Example 171], 2.51. On to `CCC1CC(CC)CN(c2ncc(-c3ccc(C4CCC(c5c(F)cccc5F)=N4)cc3)cn2)C1` (stereo not drawn) [Example 103], for which, under setting [1], the chromatographic logP came to 5.82.

For the compound `Clc1ccc(NC2CCCCC2)nn1` [III-15, N-(6-chloro-3-pyridazinyl)-N-cyclohexylamine], the chromatographic logP under setting [1] came out at 0.95. For `CCCCCCC(=O)N(c1ccc(-c2ccc(C3CCC(c4c(F)cccc4F)=N3)cc2)nn1)C1CCCC1` (stereo not drawn) [Example 58], the chromatographic logP under setting [1] was 4.82. As to `CN(c1ncc(-c2ccc(C3CCC(c4c(F)cccc4F)=N3)cc2)cn1)S(=O)(=O)C(F)(F)F` (stereo not drawn) [Example 37], the chromatographic logP under setting [1] was 3.5. Compound `Fc1cccc(F)c1C1=NC(c2ccc(-c3ccccn3)cc2)CC1` (stereo not drawn) [Example 4] showed a chromatographic logP under setting [1] of 1.24. In the case of `Fc1cccc(F)c1C1=NC(c2ccc(-c3cnc(N4CCCC4)nc3)cc2)CC1` (stereo not drawn) [Example 41], under setting [1], the chromatographic logP was 2.11. Compound `FC(F)=C(F)CCOc1ccc(-c2ccc(C3CCC(c4c(F)cccc4F)=N3)cc2)nn1` (stereo not drawn) [Example 74] yielded a chromatographic logP under setting [1] of 2.95. Same read-out and setting: to `Fc1cccc(F)c1C1=NC(c2ccc(-c3ccc(Br)cn3)cc2)CC1` (stereo not drawn) [Example 110] belongs 3.07; to `Fc1cccc(F)c1C1=NC(c2ccc(-c3cnc(-n4cccc4)nc3)cc2)CC1` (stereo not drawn) [Example 166], 3.58; to `CCN(Cc1ccc(-c2ccc(C3CCC(c4c(F)cccc4F)=N3)cc2)nc1)S(=O)(=O)C(F)(F)F` (stereo not drawn) [Example 17], 3.35.
